Data as given in patent US11147748B2, “Composition of temporary crown materials” (National Taipei University of Technology, priority 2019, dated 2021).
“Also recorded” adds a separate entry of the source. Structures can show the parent of a compound that is named as a salt.

Legend:
[1] = system: fibroblasts (L929); assay: cytotoxicity test (MTT) with extract of the cured temporary crown material; assay type: cell-based; conditions: L929 co-cultured with material extract (0.2 g/ml) for 24 hours and 72 hours; plasticizer in crown material; FIG. 3
Method: First, 2 grams (g) of the mixture of the powder reagent and the liquid reagent were taken to be cured and then immersed in 10 ml of MEM culture medium at a temperature of 37° C. for 24 hours. Afterwards, an extract of the mixture was taken, in which the extraction ratio was 0.2 g/ml.
Further, fibroblasts (L929) were seeded in the 96-well plates and incubated for 1 day.
Afterwards, the cell culture media were removed, and then a material extract containing 10% fetal bovine serum (FBS) after filtration and a culture medium without the material extract as the control were added, respectively, and then incubated for 24-72 hours. Subsequently, the culture media were removed again, and then phosphate buffered saline (PBS) washes were performed, followed by PBS removal. The serum-free culture medium was formulated as a reaction reagent of MTT ((3-(4,5-dimethylthiazol-2-yl)-2,5-diphenyltetrazolium bromide)), and the ratio of the culture medium to the MTT solution was 1 mg/ml. Each well plate was added with 50 μl of MTT reagent and then placed in the incubator. After 2 hours, the MTT reagent was removed, and 100 μl of antifreezing agent (DMSO) was added. The 96-well plate was shaken for 30 minutes using a rotary shaker. After the reaction was completed, the absorbance at a wavelength of 570 nm was measured by an ELISA reader. […]

[2] = three-point bending test (flexural strength, toughness) of the temporary crown material; assay type: physicochemical; conditions: for toughness (in words): FIG. 5
Method: First, the temporary crown material was filled into a stainless steel mold (a length of 25 millimeters (mm), a width of 2 mm and a height of 2 mm). After the temporary crown was completely cured, the crown was immersed in ultrapure water and placed in an oven at 37° C. for 24 hours. […] The flexural strength was calculated by the following formula: […]
wherein F was the force (N) under the maximum load; b was the average width (mm) of the test piece; h was the average thickness (mm) of the test piece; and l was the pitch (mm) between the two lower fulcrums.
In addition, the toughness of the temporary crown is the integral area under the stress-strain curve, in which stress is put on Y-axis and strain is put on X-axis. The unit of the toughness is […]

[3] = surface hardness test of temporary crowns (micro hardness tester); assay type: physicochemical; conditions: plasticizer added to temporary crown; load 4.903 N for 10 seconds; FIG. 6
Method: First, the temporary crown material was filled into a stainless steel mold (a diameter of 15 mm and a thickness of 1 mm). After the temporary crown was completely cured, the sample was immersed in ultrapure water and placed in an oven at 37° C. After 24 hours, the sample to be tested was taken out and placed in a micro hardness tester (HMV-2 series), and the load applied to the sample by the diamond indenter was 4.903 N for 10 seconds. Finally, the average length of the diagonal indentation on the surface of the sample was measured to calculate the surface hardness of the temporary crown. The calculation formula was: […]
wherein d is the length of the indentation, F is the load, and g is the gravity constant.

[4] = plasticizer added to temporary crown
[5] = temporary crown with 2% plasticizer
[6] = temporary crown with 5% plasticizer
[7] = temporary crown with 10% plasticizer
[8] = temporary crown with 15% plasticizer

| Elongation at break [2, 5] [%] | Flexural modulus [2, 5] [MPa] | Maximum stress [2, 5] [MPa] | Strain [2, 5] [%] | Toughness [2, 5] [MPa] | Elongation at break [2, 6] [%] | Flexural modulus [2, 6] [MPa] | Maximum stress [2, 6] [MPa] | Strain [2, 6] [%] | Toughness [2, 6] [MPa] | Elongation at break [2, 7] [%] | Flexural modulus [2, 7] [MPa] | Maximum stress [2, 7] [MPa] | Strain [2, 7] [%] | Toughness [2, 7] [MPa] | Elongation at break [2, 8] [%] | Flexural modulus [2, 8] [MPa] | Maximum stress [2, 8] [MPa] | Strain [2, 8] [%] | Toughness [2, 8] [MPa] | SMILES | also measured |
| --- | --- | --- | --- | --- | --- | --- | --- | --- | --- | --- | --- | --- | --- | --- | --- | --- | --- | --- | --- | --- | --- |
| 10.43 | 2173.29 | 80.70 | 8.94 | 77.26 | 13.14 | 2308.16 | 83.40 | 9.20 | 115.80 | 7.10 | 2029.32 | 69.93 | 7.09 | 30.88 | 5.34 | 1790.09 | 46.31 | 5.36 | 11.98 | CCOC(=O)CC(O)(CC(=O)OCC)C(=O)OCC [TEC, triethyl citrate] | cytotoxicity / cell survival rate [1]: not significantly improved; toughness (in words) [2, 4]: can increase the toughness |
| 7.94 | 2463.34 | 85.24 | 7.72 | 59.89 | 8.24 | 2362.61 | 81.98 | 7.82 | 57.21 | 6.50 | 2138.92 | 70.29 | 6.48 | 28.07 | 5.70 | 1897.78 | 55.59 | 5.71 | 17.39 | CCCCOC(=O)CC(CC(=O)OCCCC)(OC(C)=O)C(=O)OCCCC [ATBC, acetyl tributyl citrate] | cytotoxicity / cell survival rate [1]: less than that of adding plasticizers DBP and TEC; also recorded: less toxicity to cells; flexural strength (in words) ([2]; plasticizer added to temporary crown, FIG. 4): can increase the flexural strength; toughness (in words) [2, 4]: can increase the toughness |

| SMILES | Elongation at break [2, 5] [%] | Flexural modulus [2, 5] [MPa] | Maximum stress [2, 5] [MPa] | Strain [2, 5] [%] | Toughness [2, 5] [MPa] | Elongation at break [2, 6] [%] | Flexural modulus [2, 6] [MPa] | Maximum stress [2, 6] [MPa] | Strain [2, 6] [%] | Toughness [2, 6] [MPa] | Elongation at break [2, 7] [%] | Flexural modulus [2, 7] [MPa] | Maximum stress [2, 7] [MPa] | Strain [2, 7] [%] | Toughness [2, 7] [MPa] | Elongation at break [2, 8] [%] | Flexural modulus [2, 8] [MPa] | Maximum stress [2, 8] [MPa] | Strain [2, 8] [%] | Toughness [2, 8] [MPa] | also measured |
| --- | --- | --- | --- | --- | --- | --- | --- | --- | --- | --- | --- | --- | --- | --- | --- | --- | --- | --- | --- | --- | --- |
| CCCCOC(=O)c1ccccc1C(=O)OCCCC [DBP, dibutyl phthalate, reference compound] | 10.86 | 1215.08 | 66.56 | 10.75 | 28.74 | 11.43 | 1199.73 | 62.75 | 10.75 | 31.14 | 9.56 | 1083.70 | 54.11 | 9.75 | 18.94 | 9.68 | 997.11 | 46.25 | 9.50 | 17.35 | surface hardness (in words) [3]: contributes to the increase of surface hardness |
